This is an account of results in patent US7772241B2, “Variolin derivatives and their use as antitumor agents” (Pharma Mar S.A., priority 2001, dated 2010).

One assay has as its system A-549. Kind of assay: Inhibition of cells growth by colorimetric (SRB) assay, A-549. To be noted: for GI50 / CC50: Homo sapiens, A549, 48 h; for GI50: read-out: GI50 A-549, SRB assay, 48 hours exposure; for CC50: read-out: LC50 A-549, SRB assay, 48 hours exposure; for TGI A-549: SRB assay, 48 hours exposure. The source says:
(§1) The finality of these assays is to interrupt the growth of a “in vitro” tumor cell culture by means a continued exhibition of the cells to the sample to be testing.
(§2) This form of the assay employs 96 well cell culture microplates of 9 mm diameter (Faircloth, 1988; Mosmann, 1983). Most of the cell lines are obtained from American Type Culture Collection (ATCC) derived from different human cancer types.
(§3) Cells are maintained in RPMI 1640 10% FBS, supplemented with 0.1 g/l penicillin and 0.1 g/l streptomycin sulphate and then incubated at 37° C., 5% CO2 and 98% humidity. For the experiments, cells were harvested from subconfluent cultures using trypsin and resuspended in fresh medium before plating.
(§4) Cells are seeded in 96 well microtiter plates, at 5×10^3 cells per well in aliquots of 195 μl medium, and they are allowed to attach to the plate surface by growing in drug free medium for 18 hours. Afterward, samples are added in aliquots of 5 μl in a ranging from 10 to 10^−8 μg/ml, dissolved in DMSO/EtOH/PBS (0.5:0.5:99). After 48 hours exposure, the antitumor effect are measured by the SRB methodology: cells are fixed by adding 50 μl of cold 50% (wt/vol) trichloroacetic acid (TCA) and incubating for 60 minutes at 4° C. Plates are washed with deionized water and dried. One hundred μl of SRB solution (0.4% wt/vol in 1% acetic acid) is added to each microtiter well and incubated for 10 minutes at room temperature. Unbound SRB is removed by washing with 1% acetic acid. Plates are air dried and bound stain is solubilized with Tris buffer. Optical densities are read on a automated spectrophotometric plate reader at a single wavelength of 490 nm.
(§5) The values for mean +/−SD of data from triplicate wells are calculated. Some parameters for cellular responses can be calculated: GI=growth inhibition, TGI=total growth inhibition (cytostatic effect) and LC=cell killing (cytotoxic effect).
(Sulforhodamine B stains cellular protein and so reports cell mass.)

A further assay concerns HT-29. Briefly: Inhibition of cells growth by colorimetric (SRB) assay, HT-29. To be noted: for GI50 / CC50: Homo sapiens, HT-29, 48 h; for GI50: read-out: GI50 HT-29, SRB assay, 48 hours exposure; for CC50: read-out: LC50 HT-29, SRB assay, 48 hours exposure; for TGI HT-29: SRB assay, 48 hours exposure.
Description: as §1, §2, §3, §4, §5

With `CSc1nccc(-c2c3cccnc3n3c(SC)nccc23)n1` [Compound 9], in the assay on A-549, the 50% growth inhibitory concentration (GI50) worked out at 5.9 µM, the CC50 was determined as 29.5 µM and the “TGI A-549” value was 1.18E−05. In the assay on HT-29, the concentration for 50% growth inhibition (GI50) is 9.16 µM, the CC50 amounted to 25.7 µM and the “TGI HT-29” value is 2.57E−05.
Regarding `CSc1nccc(-c2c3cc4ccccc4nc3n3c(SC)nccc23)n1` [Compound 17a], in the assay on A-549, the 50% growth inhibitory concentration (GI50) is at least 25.7 µM, the CC50 was determined as 129 µM and the “TGI A-549” value amounted to 7.71E−05. Also, in the assay on HT-29, the GI50 is at least 25.7 µM, the CC50 came out at 129 µM and the “TGI HT-29” value came to 7.71E−05.
With `COc1ccc2nc3c(cc2c1)c(-c1ccnc(SC)n1)c1ccnc(SC)n13` [Compound 17b], in the assay with A-549, the concentration for 50% growth inhibition (GI50) is 7.16 µM, the CC50 turned out to be 19.1 µM and the “TGI A-549” value turned out to be 1.19E−05. Further, in the assay with HT-29, the GI50 was 7.16 µM, the CC50 came out at 19.1 µM and the “TGI HT-29” value worked out at 1.19E−05.
`CSc1nccc(-c2c3ccc(C)nc3n3c(SC)nccc23)n1` [Compound 22]: in the assay with A-549, the GI50 turned out to be 0.85 µM, the CC50 was 22.7 µM and the “TGI A-549” value turned out to be 2.27E−06. Further, in the assay on HT-29, the concentration for 50% growth inhibition (GI50) is 2.83 µM, the CC50 was 19.8 µM and the “TGI HT-29” value was found to be 8.50E−06.
Regarding `CSc1nccc(-c2c3cccnc3n3c(N)nccc23)n1` [Compound 25], in the assay with A-549, the 50% growth inhibitory concentration (GI50) came to 0.649 µM, the CC50 was at least 162 µM and the “TGI A-549” value stood at 3.25E−07. For the same compound, in the assay with HT-29, the 50% growth inhibitory concentration (GI50) came to 0.974 µM, the CC50 is at least 162 µM and the “TGI HT-29” value worked out at 9.74E−07.
`c1ccc(CNc2nccc(-c3c4cccnc4n4c(NCc5ccccc5)nccc34)n2)cc1` [Compound 28]: in the assay on A-549, the GI50 worked out at 109 µM, the CC50 turned out to be 109 µM and the “TGI A-549” value is recorded as 1.09E−04. In addition, in the assay with HT-29, the GI50 is 109 µM, the CC50 was determined as 109 µM and the “TGI HT-29” value amounted to 1.09E−04.
In the case of `CSc1nccc(-c2c3c(OCc4ccccc4)ccnc3n3c(SC)nccc23)n1` [Compound 52], in the assay on A-549, the concentration for 50% growth inhibition (GI50) worked out at 5.81 µM, the CC50 amounted to 15.7 µM and the “TGI A-549” value stood at 9.56E−06. Moreover, in the assay with HT-29, the GI50 is 5.36 µM, the CC50 was 15.7 µM and the “TGI HT-29” value was found to be 9.20E−06.

One may read the GI50 as the concentration that inhibits growth by half.
